Assay results from paper PMC11679033, “Assessing the Potential Synergistic/Antagonistic Effects of Citrinin and Cannabidiol on SH-SY5Y, HepG2, HEK293 Cell Lines, and Human Lymphocytes” (Toxins, 2024).

Assays:
Assay type in all cases: cell-based, human
HepG2 cells = assay: MTS viability assay, HepG2; conditions: for lowest observed adverse effect level (LOAEL), approximate / cell viability at LOAEL concentrations: HepG2, 24 h; for cell viability at LOAEL concentrations: CBD 1 μM, CIT 30 μM, alone or combined
Procedure: (§1) Human neuroblastoma SH-SY5Y cells (ECACC 94030304), human hepatocyte carcinoma HepG2 (ECACC 85011430) and human embryonic kidney HEK293 (ECACC 85120602) used in the experiments were obtained from the European Collection of Authenticated Cell Cultures (ECACC) through Sigma-Aldrich (Steinheim, Germany). SH-SY5Y cells were grown in Dulbecco’s Modified Eagle’s Medium F12 containing 15% (v/v) fetal bovine serum (FBS), 2 mM glutamine, 1% (v/v) penicillin/streptomycin (PenStrep solution), and 1% (v/v) non-essential amino acids (NEAA solution). HEK293 and HepG2 cells were grown in EMEM medium (Sigma-Aldrich, Steinheim, Germany) supplemented with 10% (v/v) FBS, 2 mM glutamine, 1% (v/v) PenStrep and 1% (v/v) NEAA. All media and supplements were purchased from Sigma-Aldrich, Steinheim, Germany. Cells were cultured at 37 °C in a 5% CO2 atmosphere, the medium was changed every two days, and passage was carried out according to the manufacturer’s protocol.
(§2) MTS assay (CellTiter 96® AQueous One Solution Cell Proliferation Assay, Promega, Madison, WI, USA) was used to determine the viability of cells/cytotoxic properties of tested compounds by measuring cells’ mitochondrial succinate dehydrogenase activity. The procedure followed a previously described protocol. In brief, the cells were seeded in transparent 96-well plates at a density of 20,000 cells/well one day before the experiment and treated with tested compounds in concentrations: 0.01, 0.1, 0.5, 1, 2, 5, 10, 25, 50, 100 and 300 µM. Triton X-100 at a final concentration of 0.18% (v/v) (stock of 9% in water; Sigma-Aldrich, Steinheim, Germany) was used as a positive control. After 24 h, treatment with tested compounds and incubation with MTS reagent, the absorbance was read at 492 nm on an Infinite M200PRO (Tecan Group Ltd., Männedorf, Switzerland) plate reader. Data were taken from at least three independent experiments (each treatment performed in duplicate or triplicate) and expressed as percentages (mean ± standard error) of viable cells compared to control (untreated) cells. IC50 values were determined by a nonlinear fit equation predefined in Prism software 8 (GraphPad Software, San Diego, CA, USA).
(§3) The same method was used to evaluate a potential toxic synergistic effect on cells exposed to a combination of CBD and CIT at approximately LOAEL doses (lowest observed adverse effect level, 1 and 30 μM for SH-SY5Y and HepG2, and 2 and 0.05 μM for HEK293, respectively). There is no official recommendation for CBD oral use, but according to the available literature, we used a dose that corresponded to daily intake, which was 10 mg/kg/day (calculated on a person of 70 kg ~ 1 μM). These selected LOAEL concentrations were used for all other assays as well.

[1] = MTS viability assay, HepG2; conditions: human, HepG2 cells; HepG2, 24 h exposure, MTS; read-out: IC50 (cytotoxicity)
Procedure: as §1, §2, §3

SH-SY5Y cells = assay: Cell membrane integrity (LDH release), SH-SY5Y; conditions: 24 h, CBD 1 μM, CIT 30 μM, alone or combined
Procedure: Cell membrane integrity was determined after exposure to compounds’ concentrations corresponding to LOAEL concentrations in 24 h by measuring the release of the intracellular lactate dehydrogenase (LDH) and the procedure followed a previously described protocol using The CytoTox-ONE™ Homogeneous Membrane Integrity Assay (Promega, Madison, WI, USA). In short, the cells were seeded in black 96-well plates at a density of 10,000 cells/well one day before the experiment and treated with selected LOAEL concentrations. Triton X-100 at a final concentration of 0.18% (v/v) (stock of 9% in water) was used as a positive control to determine the maximal LDH release. Data were taken from at least two independent experiments (each treatment performed in duplicate or triplicate) and plotted as a percentage of LDH release compared to the determined maximal LDH release, according to the manufacturer’s calculation protocol.

Row | SMILES | lowest observed adverse effect level (LOAEL), approximate (HepG2 cells) | cell viability at LOAEL concentrations (HepG2 cells) | IC50 at 24 h [1] [µM] | cell membrane integrity (LDH release) (SH-SY5Y cells) | cytotoxicity fold higher than CIT (HepG2 cells; in both HepG2 and SH-SY5Y, 24 h)
1 | CC1=C2C(=CO[C@H](C)[C@H]2C)C(O)=C(C(=O)O)C1=O [CIT, citrinin] | ~30 µM | did not independently impact cell viability | 59 ± 9 | not significantly compromised | –
2 | C=C(C)[C@@H]1CCC(C)=C[C@H]1c1c(O)cc(CCCCC)cc1O [CBD, cannabidiol] | ~ 1 μM | did not independently impact cell viability | 40 ± 7 | not significantly compromised | 1.5- to 4 fold
